Laboratory results: ChEMBL document CHEMBL5500383, “Recent advances and future directions on small molecule VEGFR inhibitors in oncological conditions” (Eur J Med Chem, 2024)
pIC50: −log10 of the molar value. Values belong to the molecule of their own block, whether it stands above or below them.

Key:
[1] = system: MDA-MB-435; assay: Cytotoxicity against human MDA-MB-435 cells assessed as reduction in cell growth measured for 72 hrs by MTT assay; format: functional, cell-based; settings: MDA-MB-435, 72 h
[2] = system: DU-145; assay: Cytotoxicity against human DU-145 cells assessed as reduction in cell viability incubated for 72 hrs by MTT assay; format: functional, cell-based; settings: DU-145, 72 h
[3] = system: PC-3; assay: Cytotoxicity against human PC-3 cells assessed as reduction in cell viability incubated for 72 hrs by MTT assay; format: functional, cell-based; settings: PC-3, 72 h
[4] = system: HCT-116; assay: Antiproliferative activity against human HCT-116 cells assessed as reduction in cell growth by MTT assay; format: functional, cell-based
[5] = system: HepG2; assay: Antiproliferative activity against human HepG2 cells assessed as reduction in cell growth by MTT assay; format: functional, cell-based
[6] = biological target: T1, Vascular endothelial growth factor receptor 2 (Homo sapiens, UniProt P35968); assay: Inhibition of human VEGFR2 by discoverX kinome scan assay
[7] = system: HepG2; assay: Cytotoxicity against human HepG2 cells assessed as reduction in cell viability by SRB assay; format: functional, cell-based
[8] = system: HCT-116; assay: Cytotoxicity against human HCT-116 cells assessed as reduction in cell viability by SRB assay; format: functional, cell-based
[9] = system: MCF7; assay: Antiproliferative activity against human MCF7 cells assessed as reduction in cell growth by MTT assay; format: functional, cell-based
[10] = system: MCF7; assay: Cytotoxicity against human MCF7 cells assessed as reduction in cell viability by SRB assay; format: functional, cell-based
[11] = system: HCC827; assay: Growth inhibition of human HCC827 cells; format: functional
[12] = system: PC-9; assay: Growth inhibition of human PC-9 cells; format: functional
[13] = system: HepG2; assay: Cytotoxicity against human HepG2 cells assessed as reduction in cell viability; format: functional, cell-based
[14] = Cytotoxicity against African green monkey Vero cells assessed as reduction in cell viability incubated for 72 hrs by crystal violet staining based analysis; format: toxicity, Chlorocebus sabaeus
[15] = system: HCT-116; assay: Cytotoxicity against human HCT-116 cells assessed as reduction in cell viability; format: functional, cell-based
[16] = system: MCF7; assay: Cytotoxicity against human MCF7 cells assessed as reduction in cell growth incubated for 48 hrs by MTT assay; format: functional, cell-based; settings: MCF7, 48 h
[17] = system: PC-3; assay: Cytotoxicity against human PC-3 cells assessed as reduction in cell growth; format: toxicity, cell-based
[18] = system: PC-3; assay: Antiproliferative activity against human PC-3 cells assessed as reduction in cell growth; format: functional, cell-based
[19] = system: HOP-92; assay: Growth inhibition of human HOP-92 cells incubated for 48 hrs by sulforhodamine B assay; format: functional
[20] = system: A549; assay: Antiproliferative activity against human A549 cells; format: functional, cell-based
[21] = biological target: RAF proto-oncogene serine/threonine-protein kinase (Homo sapiens, UniProt P04049); assay: Inhibition of C-RAF (unknown origin)
[22] = biological target: Serine/threonine-protein kinase B-raf (Homo sapiens, UniProt P15056); assay: Inhibition of wild type BRAF (unknown origin)
[23] = system: HepG2; assay: Antiproliferative activity against human HepG2 cells assessed as reduction in cell growth after 72 hrs by MTT assay; format: functional, cell-based; settings: HepG2, 72 h
[24] = system: MCF7; assay: Antiproliferative activity against human MCF7 cells assessed as reduction in cell viability measured after 72 hrs by MTT assay; format: functional, cell-based; settings: MCF7, 72 h
[25] = biological target: Serine/threonine-protein kinase B-raf (Homo sapiens, UniProt P15056, V600E); assay: Inhibition of BRAF V600E mutant (unknown origin)
[26] = system: PC-3; assay: Antiproliferative activity against human PC-3 cells; format: functional, cell-based
[27] = Inhibition of VEGFR (unknown origin); parameters: species or system Homo sapiens
[28] = system: A-375; assay: Antiproliferative activity against human A-375 cells assessed as reduction in cell viability measured after 72 hrs by MTT assay; format: functional, cell-based; settings: A-375, 72 h
[29] = system: MIA PaCa-2; assay: Antiproliferative activity against human MIA PaCa-2 cells assessed as inhibition of cell growth incubated for 48 hrs by MTS assay; format: functional, cell-based; settings: MIA PaCa-2, 48 h
[30] = system: HCT-116; assay: Antiproliferative activity against human HCT-116 cells assessed as reduction in cell viability measured after 72 hrs by MTT assay; format: functional, cell-based; settings: HCT-116, 72 h
[31] = system: HepG2; assay: Antiproliferative activity against human HepG2 cells; format: functional, cell-based
[32] = system: MCF7; assay: Antiproliferative activity against human MCF7 cells; format: functional, cell-based
[33] = system: Caco-2; assay: Antiproliferative activity against human Caco-2 cells; format: functional, cell-based
[34] = system: MDA-MB-231; assay: Antiproliferative activity against human MDA-MB-231 cells; format: functional, cell-based
[35] = system: HCT-116; assay: Antiproliferative activity against human HCT-116 cells; format: functional, cell-based
[36] = biological target: T1, Vascular endothelial growth factor receptor 2; assay: Inhibition of VEGFR2 (unknown origin)
[37] = biological target: Epidermal growth factor receptor (Homo sapiens, UniProt P00533); assay: Inhibition of EGFR (unknown origin)
[38] = system: Caco-2; assay: Antiproliferative activity against human Caco-2 cells assessed as reduction in cell growth; format: functional, cell-based
[39] = system: MCF7; assay: Antiproliferative activity against human MCF7 cells assessed as inhibition of cell growth; format: functional, cell-based
[40] = system: HepG2; assay: Antiproliferative activity against human HepG2 cells assessed as cell growth inhibition incubated for 24 hrs by MTT assay; format: functional, cell-based; settings: HepG2, 24 h
[41] = system: HepG2; assay: Antiproliferative activity against human HepG2 cells assessed as reduction in cell growth; format: functional, cell-based
[42] = biological target: Serine/threonine-protein kinase pim-1 (Homo sapiens, UniProt P11309); assay: Inhibition of PIM-1 (unknown origin)
[43] = system: PC-3; assay: Antiproliferative activity against human PC-3 cells assessed as inhibition of cell growth; format: functional, cell-based
[44] = system: PC-3; assay: Antiproliferative activity against human PC-3 cells assessed as cell growth inhibition incubated for 24 hrs by MTT assay; format: functional, cell-based; settings: PC-3, 24 h
[45] = system: SF-539; assay: Antiproliferative activity against human SF-539 cells assessed as inhibition of cell growth at 10 uM after 48 hrs by sulforhodamine B assay relative to control; format: functional; parameters: scale not given: the % may be the effect or the level left
[46] = biological target: T1, Vascular endothelial growth factor receptor 2; assay: Inhibition of VEGFR2 (unknown origin) incubated for 1 hr in presence of ATP by ELISA method

T1 sequence (P35968 whole entry): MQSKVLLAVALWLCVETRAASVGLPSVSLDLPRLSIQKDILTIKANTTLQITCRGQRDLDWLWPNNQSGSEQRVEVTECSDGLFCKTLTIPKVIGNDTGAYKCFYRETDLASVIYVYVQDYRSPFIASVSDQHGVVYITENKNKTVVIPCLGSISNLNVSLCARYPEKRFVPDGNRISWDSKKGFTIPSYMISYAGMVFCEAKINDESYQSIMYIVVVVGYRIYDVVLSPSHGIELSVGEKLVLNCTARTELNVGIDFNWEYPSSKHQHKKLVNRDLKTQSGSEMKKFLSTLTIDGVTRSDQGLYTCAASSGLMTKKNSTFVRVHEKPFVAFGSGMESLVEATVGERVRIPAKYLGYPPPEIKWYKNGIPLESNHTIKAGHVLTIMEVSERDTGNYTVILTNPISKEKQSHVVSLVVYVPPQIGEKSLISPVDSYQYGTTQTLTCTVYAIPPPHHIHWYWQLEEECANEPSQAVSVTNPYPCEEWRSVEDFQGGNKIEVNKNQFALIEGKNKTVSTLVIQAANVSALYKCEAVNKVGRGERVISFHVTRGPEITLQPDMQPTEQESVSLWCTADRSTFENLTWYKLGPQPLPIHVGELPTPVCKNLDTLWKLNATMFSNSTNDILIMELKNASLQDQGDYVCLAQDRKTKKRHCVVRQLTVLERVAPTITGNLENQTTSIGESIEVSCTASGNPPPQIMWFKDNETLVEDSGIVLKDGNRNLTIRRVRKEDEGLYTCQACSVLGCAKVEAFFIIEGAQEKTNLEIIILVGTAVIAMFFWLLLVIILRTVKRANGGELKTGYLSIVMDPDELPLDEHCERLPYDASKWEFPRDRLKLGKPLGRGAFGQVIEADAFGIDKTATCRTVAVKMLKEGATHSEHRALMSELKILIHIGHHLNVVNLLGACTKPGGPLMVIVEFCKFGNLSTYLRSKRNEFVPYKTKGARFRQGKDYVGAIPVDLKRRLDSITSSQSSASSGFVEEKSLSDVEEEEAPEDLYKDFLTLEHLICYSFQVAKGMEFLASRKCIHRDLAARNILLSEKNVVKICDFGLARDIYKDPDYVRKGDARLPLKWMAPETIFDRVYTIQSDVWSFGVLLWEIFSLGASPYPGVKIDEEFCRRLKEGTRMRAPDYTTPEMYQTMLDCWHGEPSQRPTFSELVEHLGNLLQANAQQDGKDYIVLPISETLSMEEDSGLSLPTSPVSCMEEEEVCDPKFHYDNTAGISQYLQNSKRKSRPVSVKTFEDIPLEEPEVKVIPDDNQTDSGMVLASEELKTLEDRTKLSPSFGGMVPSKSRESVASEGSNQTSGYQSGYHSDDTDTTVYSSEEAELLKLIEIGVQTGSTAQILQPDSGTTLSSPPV
Chain of Serine/threonine-protein kinase B-raf (Homo sapiens, UniProt P15056) (P15056 whole entry): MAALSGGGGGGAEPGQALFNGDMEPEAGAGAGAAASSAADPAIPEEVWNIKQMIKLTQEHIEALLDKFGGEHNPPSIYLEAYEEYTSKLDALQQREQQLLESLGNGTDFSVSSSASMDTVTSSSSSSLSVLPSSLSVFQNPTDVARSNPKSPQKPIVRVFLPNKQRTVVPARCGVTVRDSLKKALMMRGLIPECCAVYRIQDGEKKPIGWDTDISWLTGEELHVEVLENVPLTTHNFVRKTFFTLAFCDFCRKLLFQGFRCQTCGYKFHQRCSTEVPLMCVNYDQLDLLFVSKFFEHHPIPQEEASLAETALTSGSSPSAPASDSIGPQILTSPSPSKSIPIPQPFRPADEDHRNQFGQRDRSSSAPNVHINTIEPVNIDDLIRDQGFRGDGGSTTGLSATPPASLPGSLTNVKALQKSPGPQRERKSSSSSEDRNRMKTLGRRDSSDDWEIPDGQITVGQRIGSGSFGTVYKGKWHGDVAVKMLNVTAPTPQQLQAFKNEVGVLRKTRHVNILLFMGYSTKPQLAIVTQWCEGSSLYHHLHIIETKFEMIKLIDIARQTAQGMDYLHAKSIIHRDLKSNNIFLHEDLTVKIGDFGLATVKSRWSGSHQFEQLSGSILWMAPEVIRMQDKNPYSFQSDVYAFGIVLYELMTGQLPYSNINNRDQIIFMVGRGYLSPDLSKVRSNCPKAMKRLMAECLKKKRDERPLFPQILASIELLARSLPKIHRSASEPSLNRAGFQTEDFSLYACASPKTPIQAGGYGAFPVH
Chain of RAF proto-oncogene serine/threonine-protein kinase (P04049 whole entry): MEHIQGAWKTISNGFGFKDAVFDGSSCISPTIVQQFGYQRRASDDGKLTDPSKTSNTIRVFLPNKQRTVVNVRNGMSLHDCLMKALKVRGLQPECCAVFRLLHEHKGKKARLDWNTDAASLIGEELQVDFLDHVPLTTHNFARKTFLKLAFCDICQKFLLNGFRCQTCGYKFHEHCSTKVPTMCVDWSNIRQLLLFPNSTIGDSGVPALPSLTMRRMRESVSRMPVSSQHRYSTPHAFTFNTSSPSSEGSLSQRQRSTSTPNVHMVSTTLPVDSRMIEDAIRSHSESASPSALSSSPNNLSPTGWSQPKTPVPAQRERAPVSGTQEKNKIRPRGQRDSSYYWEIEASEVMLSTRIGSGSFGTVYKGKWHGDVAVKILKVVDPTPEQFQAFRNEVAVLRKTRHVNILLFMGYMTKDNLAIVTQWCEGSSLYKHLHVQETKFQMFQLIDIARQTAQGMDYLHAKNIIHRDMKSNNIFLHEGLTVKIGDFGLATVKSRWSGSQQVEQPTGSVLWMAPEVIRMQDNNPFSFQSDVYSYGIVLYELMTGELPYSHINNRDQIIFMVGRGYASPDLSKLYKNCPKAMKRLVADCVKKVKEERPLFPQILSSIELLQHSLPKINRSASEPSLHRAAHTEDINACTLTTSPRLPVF
Chain of Serine/threonine-protein kinase B-raf (Homo sapiens, UniProt P15056, V600E) (P15056 2-766 V600E limits assumed): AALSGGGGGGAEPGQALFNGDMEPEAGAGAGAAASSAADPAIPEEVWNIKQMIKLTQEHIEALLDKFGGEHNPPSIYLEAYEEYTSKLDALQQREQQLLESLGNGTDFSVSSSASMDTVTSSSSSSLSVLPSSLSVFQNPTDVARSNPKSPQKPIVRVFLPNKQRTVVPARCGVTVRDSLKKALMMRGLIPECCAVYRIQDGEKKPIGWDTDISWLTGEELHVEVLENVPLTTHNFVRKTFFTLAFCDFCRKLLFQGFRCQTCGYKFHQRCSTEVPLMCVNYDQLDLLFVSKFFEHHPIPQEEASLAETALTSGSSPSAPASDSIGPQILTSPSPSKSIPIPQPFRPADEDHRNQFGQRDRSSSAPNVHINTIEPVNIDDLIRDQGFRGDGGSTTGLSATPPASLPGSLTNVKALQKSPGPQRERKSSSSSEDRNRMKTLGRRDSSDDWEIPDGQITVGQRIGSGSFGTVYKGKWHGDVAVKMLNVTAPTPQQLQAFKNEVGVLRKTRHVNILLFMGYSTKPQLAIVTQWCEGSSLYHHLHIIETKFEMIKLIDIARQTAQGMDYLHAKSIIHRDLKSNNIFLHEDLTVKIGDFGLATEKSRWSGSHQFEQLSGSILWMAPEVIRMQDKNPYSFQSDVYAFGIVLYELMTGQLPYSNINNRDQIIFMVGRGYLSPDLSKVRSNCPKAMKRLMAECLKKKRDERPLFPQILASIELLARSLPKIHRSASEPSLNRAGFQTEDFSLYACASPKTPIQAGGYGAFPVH
Chain of Serine/threonine-protein kinase pim-1 (P11309 whole entry): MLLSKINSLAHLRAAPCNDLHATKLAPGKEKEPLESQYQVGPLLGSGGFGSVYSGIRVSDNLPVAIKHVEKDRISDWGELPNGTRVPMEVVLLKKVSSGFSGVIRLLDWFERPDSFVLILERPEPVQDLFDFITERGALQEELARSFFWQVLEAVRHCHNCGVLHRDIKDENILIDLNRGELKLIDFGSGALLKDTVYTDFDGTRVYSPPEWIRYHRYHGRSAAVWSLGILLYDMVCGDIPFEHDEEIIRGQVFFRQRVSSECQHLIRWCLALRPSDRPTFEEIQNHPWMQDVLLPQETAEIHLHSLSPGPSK
Chain of Epidermal growth factor receptor (P00533 whole entry): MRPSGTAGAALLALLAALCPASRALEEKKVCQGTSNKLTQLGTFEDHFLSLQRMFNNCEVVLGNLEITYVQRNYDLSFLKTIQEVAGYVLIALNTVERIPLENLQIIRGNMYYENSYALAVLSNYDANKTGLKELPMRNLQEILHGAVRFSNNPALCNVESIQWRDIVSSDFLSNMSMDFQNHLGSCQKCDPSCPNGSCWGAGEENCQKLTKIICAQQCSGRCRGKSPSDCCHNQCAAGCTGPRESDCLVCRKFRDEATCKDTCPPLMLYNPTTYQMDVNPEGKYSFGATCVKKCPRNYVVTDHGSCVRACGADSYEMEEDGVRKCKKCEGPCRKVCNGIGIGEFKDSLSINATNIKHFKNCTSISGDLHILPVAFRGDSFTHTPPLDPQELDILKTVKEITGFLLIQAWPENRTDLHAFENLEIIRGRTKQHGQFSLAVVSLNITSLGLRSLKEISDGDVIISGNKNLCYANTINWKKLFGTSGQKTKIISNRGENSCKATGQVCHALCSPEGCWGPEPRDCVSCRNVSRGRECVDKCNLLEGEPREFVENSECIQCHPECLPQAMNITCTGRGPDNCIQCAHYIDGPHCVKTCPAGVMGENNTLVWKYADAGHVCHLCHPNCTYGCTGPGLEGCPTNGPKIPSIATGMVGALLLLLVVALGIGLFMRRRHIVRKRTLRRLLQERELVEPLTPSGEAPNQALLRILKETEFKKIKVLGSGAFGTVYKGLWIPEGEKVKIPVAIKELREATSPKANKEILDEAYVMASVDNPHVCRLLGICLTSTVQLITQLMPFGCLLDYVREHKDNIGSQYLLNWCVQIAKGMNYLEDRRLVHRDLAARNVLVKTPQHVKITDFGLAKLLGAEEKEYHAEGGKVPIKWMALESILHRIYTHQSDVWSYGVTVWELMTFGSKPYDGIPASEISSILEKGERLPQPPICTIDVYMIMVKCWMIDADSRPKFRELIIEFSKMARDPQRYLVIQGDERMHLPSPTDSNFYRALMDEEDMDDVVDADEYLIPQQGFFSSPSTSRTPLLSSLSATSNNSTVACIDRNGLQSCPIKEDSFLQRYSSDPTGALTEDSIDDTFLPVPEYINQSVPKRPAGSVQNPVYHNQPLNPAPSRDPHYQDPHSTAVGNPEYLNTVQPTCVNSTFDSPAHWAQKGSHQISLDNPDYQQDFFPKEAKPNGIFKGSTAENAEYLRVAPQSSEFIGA

SMILES: COc1cc(-c2cc(-c3ccc4ccccc4c3)nc(NN)c2C#N)ccc1O
- pIC50 [1]: 7.02
- pIC50 [2]: 8.07
- pIC50 [3]: 7.26

- pIC50 [4]: 5.55
- pIC50 [5]: 5.39
- pIC50 [6]: 6.64
- pIC50 [9]: 4.99
SMILES: O=C(N/N=C/c1ccc(Cl)cc1)c1ccc(Nc2ncnc3sc4c(c23)CCCC4)cc1
- pIC50 [7]: 5.39
- pIC50 [8]: 5.55
- pIC50 [10]: 4.99

- GI50 [11]: 1300 nM
- GI50 [12]: 6000 nM
SMILES: NC(=O)CCn1cc(-c2ccc3ncnc(Nc4cc(O)c(F)cc4F)c3c2)nn1

SMILES: Cc1nc2ccccc2n(CC(=O)Nc2ccc(C(=O)NCc3ccccc3)cc2)c1=O
- pIC50 [13]: 5.28
- IC50 at 72 h [14]: 11800 nM
- pIC50 [15]: 5.66

SMILES: CC1=NN(c2ccc([N+](=O)[O-])cc2[N+](=O)[O-])C(=O)/C1=C\c1cn(-c2ccccc2)nc1-c1cccc([N+](=O)[O-])c1
- pIC50 [16]: 4.78

- pIC50 [18]: 8.04
SMILES: N#CCc1nnc(NC(=O)c2ccco2)s1
- pIC50 [17]: 7.16

SMILES: Cc1ccc(S(=O)(=O)Nc2ccc(-c3cc(-c4cccc(F)c4)c(C#N)c(N)n3)cc2)cc1
- GI50 [19]: 1060 nM

- pIC50 [20]: 7.00
- pIC50 [21]: 7.00
- pIC50 [22]: 7.70
- pIC50 [23]: 7.00
- pIC50 [24]: 7.00
- pIC50 [25]: 8.70
- pIC50 [26]: 7.00
- pIC50 [27]: < 4.00
- pIC50 [28]: 7.00
- pIC50 [29]: 7.00
- pIC50 [30]: 7.00
SMILES: O=C(CSc1nc2ccccc2c(=O)n1-c1ccc(Cl)cc1)Nc1ccc(-c2nc3ccccc3[nH]2)cc1

- pIC50 [31]: 4.74
- pIC50 [32]: 5.11
- pIC50 [33]: 4.89
- pIC50 [34]: 4.62
- pIC50 [35]: 4.51
- pIC50 [36]: 7.01
- pIC50 [37]: 7.15
SMILES: COc1ccc(-c2cc(-c3ccc(C)cc3)nc(NN)n2)cc1

- pIC50 [38]: 7.70
- pIC50 [39]: 8.00
- pIC50 [40]: 8.22
- pIC50 [41]: 8.22
- pIC50 [42]: 5.10
- pIC50 [43]: 8.00
- pIC50 [36]: 5.23
- pIC50 [44]: 7.72
SMILES: COc1ccc(-c2cc(-c3ccc(OC)c(OC)c3)c3c(N)c(C(=O)c4ccc(C)cc4)sc3n2)cc1OC

- pIC50 [46]: 4.39
SMILES: CNC(=O)c1nc(Nc2ccc(NC(=O)Nc3cccc(OC)c3)cc2)c2ccccc2n1
- Activity [45]: 47.8%
